Source: ChEMBL document CHEMBL3351617, “Concise syntheses of 7-anilino-indoline-N-benzenesulfonamides as antimitotic and vascular disrupting agents” (Bioorg Med Chem, 2014)
The source made the active and inactive calls. The calls are words filed in the database; no cut-off is given here.

What was measured:
HT-29 [1] = experiment: Antiproliferative activity against human HT-29 cells; format: functional, cell-based
[2] = Antiproliferative activity against human MKN45 cells; format: functional, cell-based; conditions: MKN-45
KB [3] = experiment: Antiproliferative activity against human KB cells; format: functional, cell-based
[4] = Retention time of the compound by HPLC; format: physicochemical
Tubulin (Homo sapiens) [5] = molecular target: T1, Tubulin (Homo sapiens) (UniProt P68371+Q9H4B7+P0DPH7+P68366+Q13509+Q71U36+P04350+Q3ZCM7+P07437+P68363+Q9BQE3+Q6PEY2+Q13885+Q9BVA1+Q9BUF5); experiment: Inhibition of MAP-rich tubulin (unknown origin) polymerization measured every 30 seconds for 30 mins by spectrophotometry; format: protein-complex assay
HUVEC [6] = experiment: Cytotoxicity against HUVECs assessed as reduction in cell viability at 100 nM; format: cell-based; conditions: human, 0.1 µM
Tubulin (Homo sapiens) [7] = molecular target: T1, Tubulin (Homo sapiens); experiment: Competitive inhibition of [3H]colchicine binding to long-chain biotin-labeled tubulin (unknown origin) after 2 hrs by double-reciprocal plot analysis; format: protein-complex assay
KB [8] = experiment: Cell cycle arrest in human KB cells assessed as accumulation at G2/M phase after 24 hrs using propidium iodide staining by flow cytometry; format: functional, cell-based
[9] = Antiproliferative activity against human KB-7d cells; format: functional, cell-based; conditions: KB7D
Tubulin = experiment: Inhibition of tubulin (unknown origin) polymerization by spectrophotometry; format: protein-complex assay, Homo sapiens
Tubulin (Homo sapiens) [10] = molecular target: T1, Tubulin (Homo sapiens); experiment: Inhibition of MAP-rich tubulin (unknown origin) polymerization at 10 uM measured every 30 seconds for 30 mins by spectrophotometry; format: protein-complex assay
HUVEC [11] = experiment: Disruption of vasculature in HUVECs assessed as inhibition of VEGF-induced capillary tube formation by microscopy; format: functional, cell-based; conditions: Homo sapiens
[12] = Antiproliferative activity against human KB-VIN10 cells; format: functional, cell-based
Tubulin (Homo sapiens) [13] = molecular target: T1, Tubulin (Homo sapiens); experiment: Displacement of [3H]colchicine from long-chain biotin-labeled tubulin (unknown origin) at 5 uM after 2 hrs by competition-binding scintillation proximity assay; format: protein-complex assay
KB [14] = experiment: Cell cycle arrest in human KB cells assessed as accumulation of cells at sub-G1 phase at 100 nM after 24 hrs using propidium iodide staining by flow cytometry; format: functional, cell-based
KB [15] = experiment: Cell cycle arrest in human KB cells assessed as reduction of cells at S phase at 25 to 400 nM after 24 hrs using propidium iodide staining by flow cytometry; format: functional, cell-based
Tubulin (Homo sapiens) [16] = molecular target: T1, Tubulin (Homo sapiens); experiment: Displacement of [3H]colchicine from long-chain biotin-labeled tubulin (unknown origin) at 1 uM after 2 hrs by competition-binding scintillation proximity assay; format: protein-complex assay
HUVEC [17] = experiment: Disruption of vasculature in HUVECs assessed as inhibition of VEGF-induced capillary tube formation at 100 nM by microscopy; format: functional, cell-based; conditions: Homo sapiens
[18] = Antiproliferative activity against human KB-S15 cells; format: functional, cell-based
KB [19] = experiment: Cell cycle arrest in human KB cells assessed as reduction of cells at G1 phase at 25 to 400 nM after 24 hrs using propidium iodide staining by flow cytometry; format: functional, cell-based
HT-29 [20] = experiment: Ratio of ABT751 IC50 to compound IC50 for human HT-29 cells; format: functional
MKN-45 = experiment: Ratio of ABT751 IC50 to compound IC50 for human MKN45 cells; format: functional
KB [21] = experiment: Ratio of ABT751 IC50 to compound IC50 for human KB cells; format: functional

Row | SMILES | IC50 (HT-29 [1]) | IC50 [2] | IC50 (KB [3]) | Retention_time [4] | IC50 [9] | further results
1 | COc1ccc(S(=O)(=O)N2CCc3cccc(Nc4ccccc4)c32)cc1 | 343 nM | 187 nM | 342 nM | 44.81 min |  | 
2 | COc1ccc(Nc2cccc3c2N(S(=O)(=O)c2ccc(OC)cc2)CC3)cc1 | 803 nM | 487 nM | 1200 nM | 43.47 min |  | 
3 | COc1ccc(S(=O)(=O)N2CCc3cccc(Nc4ccc(C#N)cc4)c32)cc1 | 149 nM | 92 nM | 49.7 nM | 40.79 min | 71.1 nM | inhibition (Tubulin (Homo sapiens) [5]): Dose-dependent effect; Activity (HUVEC [6]): Non-toxic; inhibition (Tubulin (Homo sapiens) [7]): Active; Activity (KB [8]): Dose-dependent effect; IC50 (Tubulin): 3200 nM; inhibition (Tubulin (Homo sapiens) [10]): Active; Activity (HUVEC [11]): Dose-dependent effect; IC50 [12]: 71.9 nM; inhibition (Tubulin (Homo sapiens) [13]): 86.4%; Activity (KB [14]): Active; Activity (KB [15]): Active; inhibition (Tubulin (Homo sapiens) [16]): 83.6%; Activity (HUVEC [17]): Active; IC50 [18]: 77.3 nM; Activity (KB [19]): Active
4 | COc1ccc(S(=O)(=O)N2CCc3cccc(Nc4ccc(O)cc4)c32)cc1 | 511 nM | 493 nM | 239 nM | 32 min |  | 
5 | CC[C@]1(O)C[C@H]2CN(CCc3c([nH]c4ccccc34)[C@@](C(=O)OC)(c3cc4c(cc3OC)N(C=O)[C@H]3[C@@](O)(C(=O)OC)[C@H](OC(C)=O)[C@]5(CC)C=CCN6CC[C@]43[C@@H]65)C2)C1 [VINCRISTINE] |  |  |  |  | 1.2 nM | 
6 | COc1ccc(S(=O)(=O)N2CCc3cccc(Nc4ccc([N+](=O)[O-])cc4)c32)cc1 | 191 nM | 107 nM | 101 nM | 42.28 min | 115 nM | IC50 (Tubulin): 3700 nM; Ratio IC50 (HT-29 [20]): 1.5; IC50 [12]: 109 nM; inhibition (Tubulin (Homo sapiens) [13]): 69.3%; inhibition (Tubulin (Homo sapiens) [16]): 44%; IC50 [18]: 95.4 nM; Ratio IC50 (MKN-45): 1.5
7 | COc1ccc(S(=O)(=O)N2CCc3cccc(Nc4ccc(F)cc4)c32)cc1 | 588 nM | 563 nM | 557 nM | 44.71 min |  | 
8 | CC(=O)O[C@H]1C(=O)[C@@]2(C)[C@H]([C@H](OC(=O)c3ccccc3)[C@]3(O)C[C@H](OC(=O)[C@H](O)[C@@H](NC(=O)c4ccccc4)c4ccccc4)C(C)=C1C3(C)C)[C@]1(OC(C)=O)CO[C@@H]1C[C@@H]2O [PACLITAXEL] |  |  |  |  | 7.9 nM | 
9 | COc1ccc(S(=O)(=O)N2CCc3cccc(Nc4ccc(F)c(F)c4)c32)cc1 | 968 nM | 726 nM | 412 nM | 45.49 min |  | 
10 | COC(=O)c1ccc(Nc2cccc3c2N(S(=O)(=O)c2ccc(OC)cc2)CC3)cc1 | 678 nM | 487 nM | 93.5 nM | 42.74 min |  | IC50 (Tubulin): 4700 nM; inhibition (Tubulin (Homo sapiens) [13]): 66.9%; inhibition (Tubulin (Homo sapiens) [16]): 41.4%; Ratio IC50 (KB [21]): 3
11 | COc1cc([C@@H]2c3cc4c(cc3[C@@H](O[C@@H]3O[C@@H]5CO[C@@H](C)O[C@H]5[C@H](O)[C@H]3O)[C@H]3COC(=O)[C@H]23)OCO4)cc(OC)c1O [ETOPOSIDE] |  |  |  |  | 54000 nM | IC50 [12]: 23000 nM; IC50 [18]: 3500 nM
12 | COc1ccc(S(=O)(=O)N2CCc3cccc(Nc4ccc(C(=O)O)cc4)c32)cc1 | 2380 nM | 1390 nM | 846 nM | 33.94 min |  | 
13 | COc1ccc(S(=O)(=O)N2CCc3cccc(Nc4ccc(Cl)cc4)c32)cc1 | 658 nM | 463 nM | 1100 nM | 48.11 min |  | 
